One experiment concerns the target SRC (Homo sapiens, UniProt P12931). Nature of the experiment: SRC Biochemical Assay Protocol (microfluidic mobility shift assay, FLPeptide4 substrate). In short, it runs like this:
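Recombinant SRC (0.26 nM) preincubated 30 min at RT with compound (0.0017–100 μM) and 1.5 μM FLPeptide4, then 50 μM ATP added; 90 min reaction in HEPES pH 7.4, 10 mM MgCl2, 1% DMSO, EDTA-quenched. Phosphopeptide quantified by microfluidic mobility shift; IC50 from 4-parameter logistic fit.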

The next experiment has as its system RBE cells. The experiment is described as follows: Cell Viability Protocol (CellTiterGlo), RBE cells. Format: cell-based. Conditions: RBE or SNU-1079 cells, 72 or 120 hour, cell line and time not given. In short, it runs like this: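 RBE cells plated at 1200/well in RPMI 1640 with 10% FBS, incubated 24 h, then dosed with compound from DMSO stocks and incubated 72 or 120 h at 37° C. CellTiterGlo luminescence normalised to DMSO control; IC50 from 4-parameter fit.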
On the technique in general: In ATP-based viability assays light output follows the ATP content of the culture.

The test system of experiment [1] is phospho-S6RP (Ser 235/236) in RBE cells. The experiment is described as follows: Cellular Proliferation Protocol (cellular phospho-S6RP HTRF), RBE cells. Format: cell-based. Conditions: 6 hours treatment, RBE or SNU-1079 cells, cell line not given. In short, it runs like this:
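RBE cells, 2000/well, seeded 24 h before 6 h compound treatment at 37° C. Lysates were probed with a Eu-cryptate/d2 HTRF antibody sandwich for phospho-S6RP (Ser 235/236), incubated overnight at room temperature. Signal normalised to DMSO control and IC50 fitted to a 4-parameter curve.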
(In TR-FRET formats the signal depends on donor and acceptor labels being close together.)

Each structure is given as a SMILES string.

Chain of SRC (P12931 whole entry, species assumed): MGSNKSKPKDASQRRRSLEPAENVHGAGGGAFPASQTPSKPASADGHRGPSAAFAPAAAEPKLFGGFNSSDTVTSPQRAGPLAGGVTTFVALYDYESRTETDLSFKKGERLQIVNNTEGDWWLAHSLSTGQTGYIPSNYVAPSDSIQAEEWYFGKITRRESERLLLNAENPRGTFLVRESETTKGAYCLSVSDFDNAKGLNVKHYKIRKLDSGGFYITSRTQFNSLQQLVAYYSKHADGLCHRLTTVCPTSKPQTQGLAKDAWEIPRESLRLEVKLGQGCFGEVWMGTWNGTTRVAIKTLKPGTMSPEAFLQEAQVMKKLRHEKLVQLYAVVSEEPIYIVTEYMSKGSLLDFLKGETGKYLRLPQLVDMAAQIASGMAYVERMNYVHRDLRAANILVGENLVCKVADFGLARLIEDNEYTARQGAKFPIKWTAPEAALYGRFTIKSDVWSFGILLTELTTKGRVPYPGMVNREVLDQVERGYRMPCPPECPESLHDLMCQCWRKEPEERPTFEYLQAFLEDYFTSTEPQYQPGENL

As a reminder, the IC50 is the concentration that inhibits the measured activity by half. In the case of `C=CC(=O)N1CC[C@@H](N2CC(C#Cc3c(-c4ccc(Oc5cccc(C)n5)c(Cl)c4)c4c(N)ncnc4n3C)C2)[C@@H](O)C1` [II-20], the IC50 (on SRC; in the experiment on RBE cells; in experiment [1]) was 10 to 1000 nM in each case.
As for `C=CC(=O)N1CCC(N2CC(C#Cc3c(-c4ccc(Oc5ccccc5)c(OC)c4)c4c(N)ncnc4n3C)C2)CC1` [II-1], the IC50 at SRC was 10 to 1000 nM; in the experiment with RBE cells, not above 10 nM; in experiment [1] (6 h) it was not above 10 nM.
Turning to `C=CC(=O)N1C[C@@H]2[C@@H](C#Cc3c(-c4cccc5c4OCO5)c4c(N)ncnc4n3C(C)C)[C@@H]2C1` [II-132], the half-maximal inhibitory concentration (IC50) (on SRC; in the experiment with RBE cells; in experiment [1]) was not above 10 nM in each case.
With `C=CC(=O)N1CC[C@H](N2CC(C#Cc3c(-c4cccc(Cl)c4OC)c4c(N)ncnc4n3C)C2)[C@H](O)C1` [II-266], the IC50 fell in the range of 10 to 1000 nM at SRC, 1000 to 10000 nM in the experiment on RBE cells and 1000 to 10000 nM in experiment [1] (6 h).
As for `C=CC(=O)N1CC[C@@H](N2CC(C#Cc3c(-c4ccc(OC)c(OC)c4)c4c(N)ncnc4n3C)C2)[C@@H](O)C1` [II-76], the results for the IC50 (on SRC; in the experiment with RBE cells; in experiment [1]) were 10 to 1000 nM, 1000 to 10000 nM and 1000 to 10000 nM, respectively.
`C=CC(=O)N1C[C@@H]2[C@@H](C#Cc3c(-c4ccccc4OC)c4c(N)ncnc4n3C)[C@@H]2C1` [II-269]: the half-maximal inhibitory concentration (IC50) (at SRC; with RBE cells; in experiment [1] (6 h)) was 10 to 1000 nM in each case.
Take `C=CC(=O)N1C[C@@H]2[C@@H](C#Cc3c(-c4ccc(Oc5cccc(C)n5)c(OC)c4)c4c(N)ncnc4n3C)[C@@H]2C1` [II-218, 1-((1R,5S,6s)-6-((4-amino-5-(3-methoxy-4-((6-methylpyridin-2-yl)oxy)phenyl)-7-methyl-7H-pyrrolo[2,3-d]pyrimidin-6-yl)ethynyl)-3-azabicyclo[3.1.0]hexan-3-yl)prop-2-en-1-one]: the IC50 (on SRC; in the experiment with RBE cells; in experiment [1] (6 h)) was 10 to 1000 nM each time.
With `C=CC(=O)N1CCC(N2CC(C#Cc3c(-c4ccc(Cl)c(OC)c4)c4c(N)ncnc4n3C(C)C)C2)CC1` [II-86], the IC50 at SRC is not above 10 nM; with RBE cells, 10 to 1000 nM; in experiment [1], not above 10 nM.
For the molecule `C=CC(=O)N1CCC(N2CC(C#Cc3c(-c4ccc(Cl)c(O)c4)c4c(N)ncnc4n3C)C2)CC1` [II-95], the figures for the IC50 (at SRC; in the experiment with RBE cells; in experiment [1]) were not above 10 nM, 10 to 1000 nM and 10 to 1000 nM, respectively.
In the case of `C=CC(=O)N1CC[C@@H](N2CC(C#Cc3c(-c4ccc(C(F)(F)F)cc4)c4c(N)ncnc4n3C)C2)[C@@H](O)C1` [II-72], the 50% inhibitory concentration (IC50) (on SRC; in the experiment with RBE cells; in experiment [1]) was 10 to 1000 nM throughout.
Take `C=CC(=O)N1C[C@@H]2[C@@H](C#Cc3c(-c4ccc(Oc5cccc(C)n5)c(OC)c4)c4c(N)ncnc4n3C(C)C)[C@@H]2C1` [II-219, 1-((1R,5S,6s)-6-((4-amino-7-isopropyl-5-(3-methoxy-4-((6-methylpyridin-2-yl)oxy)phenyl)-7H-pyrrolo[2,3-d]pyrimidin-6-yl)ethynyl)-3-azabicyclo[3.1.0]hexan-3-yl)prop-2-en-1-one]: the IC50 (at SRC; in the experiment with RBE cells; in experiment [1] (6 h)) was not above 10 nM in each case.

The values are drawn from patent US20250154154A1 (Relay Binney Street, 2nd Floor, priority 2020, published 2025).
